According to ChEMBL document CHEMBL5154661, “Novel 2-phenyl-3-(Pyridin-2-yl) thiazolidin-4-one derivatives as potent inhibitors for proliferation of osteosarcoma cells in vitro and in vivo” (Eur J Med Chem, 2022):
≈ marks a conversion by molar mass, not a printed value.

What was measured:
HOS-TE85 [1] = assay: Antiproliferative activity against human MNNG/HOS cells assessed as cell growth inhibition measured after 72 hrs by CCK-8 assay; type: functional, cell-based; settings: HOS-TE85, 72 h
[2] = Microsomal stability in human liver microsomes assessed as intrinsic clearance at 0.1 uM incubated for 10 mins in presence of NADPH by LC-MS/MS analysis; type: ADME, Microsome
[3] = Microsomal stability in rat liver microsomes assessed as intrinsic clearance at 0.1 uM incubated for 10 mins in presence of NADPH by LC-MS/MS analysis; type: ADME, Microsome
[4] = Microsomal stability in mouse liver microsomes assessed as intrinsic clearance at 0.1 uM incubated for 10 mins in presence of NADPH by LC-MS/MS analysis; type: ADME, Microsome
[5] = Kinetic solubility of compound at pH 6.8 by turbidimetry method; type: physicochemical; settings: buffer, read-out: Kinetic_solubility
[6] = Kinetic solubility of compound at pH 7.4 by turbidimetry method; type: physicochemical; settings: buffer, read-out: Kinetic_solubility
SJSA-1 [7] = assay: Antiproliferative activity against human SJSA-1 assessed as cell growth inhibition at 1 uM measured after 72 hrs by CCK-8 assay relative to control; type: functional
U2OS = assay: Antiproliferative activity against human U2OS cells assessed as cell growth inhibition at 1 uM measured after 72 hrs by CCK-8 assay relative to control; type: functional
HOS = assay: Antiproliferative activity against human HOS cells assessed as cell growth inhibition at 1 uM measured after 72 hrs by CCK-8 assay relative to control; type: functional
HOS-TE85 [8] = assay: Antiproliferative activity against human MNNG/HOS cells assessed as cell growth inhibition at 1 uM measured after 72 hrs by CCK-8 assay relative to control; type: functional
MG-63 [9] = assay: Antiproliferative activity against human MG-63 cells assessed as cell growth inhibition at 1 uM measured after 72 hrs by CCK-8 assay relative to control; type: functional
143B = assay: Antiproliferative activity against human 143B cells assessed as cell growth inhibition at 1 uM measured after 72 hrs by CCK-8 assay relative to control; type: functional
HOS-TE85 [10] = assay: Antitumor activity against human MNNG/HOS cells xenografted in female BALB/c nude mouse assessed as tumor growth inhibition at 30 mg/kg, po administered daily for 18 days relative to control; type: functional; settings: HOS-TE85, 432 h, time 18 day, read-out: TGI
[11] = Toxicity in BALB/c nude mouse xenografted with human MNNG/HOS cells assessed as body weight loss at 62.5 mg/kg, ip administered twice per day for 18 days; type: organism-based, HOS-TE85; settings: in vivo, 432 h, time 18 day
SJSA-1 [12] = assay: Antiproliferative activity against human SJSA-1 cells assessed as cell growth inhibition measured after 72 hrs by CCK-8 assay; type: functional, cell-based; settings: SJSA-1, 72 h
MG-63 [13] = assay: Antiproliferative activity against human MG-63 cells assessed as cell growth inhibition measured after 72 hrs by CCK-8 assay; type: functional, cell-based; settings: MG-63, 72 h

intrinsic clearance (CLint) [2] [mL/min/g]	intrinsic clearance (CLint) [3] [mL/min/g]	intrinsic clearance (CLint) [4] [mL/min/g]	solubility kinetic [5] [µM]	solubility kinetic [6] [µM]	IC50 (SJSA-1 [12]) [nM]	Compound	IC50 (HOS-TE85 [1]) [nM]	inhibition at 1 µM (SJSA-1 [7]) [%]	inhibition at 1 µM (U2OS) [%]	inhibition at 1 µM (HOS) [%]	inhibition at 1 µM (HOS-TE85 [8]) [%]	inhibition at 1 µM (MG-63 [9]) [%]	inhibition at 1 µM (143B) [%]	inhibition in vivo at 30 mg/kg (HOS-TE85 [10]) [%]	Activity [11]	IC50 (MG-63 [13]) [nM]
2657	2908	2948	20 (≈ 9.49 µg/mL)	10 (≈ 4.75 µg/mL)		COc1ccccc1N1C(=O)C(C)SC1c1cccc(C(=O)NCCCCc2ccccc2)c1 (stereo unspecified)	45.1	84	38	82	95	94	61			
1844	3244	2737	10 (≈ 4.49 µg/mL)	10 (≈ 4.49 µg/mL)		O=C(NCCCCc1ccccc1)c1cccc(C2SCC(=O)N2c2cccc(F)c2)c1 (stereo unspecified)	32.4	80	39	84	94	92	63			
2553	3139	2936	10 (≈ 4.45 µg/mL)	10 (≈ 4.45 µg/mL)		Cc1cccc(N2C(=O)CSC2c2cccc(C(=O)NCCCCc3ccccc3)c2)c1 (stereo unspecified)	93.2	84	39	84	96	93	71			
1253	2298	2247	10 (≈ 4.79 µg/mL)	10 (≈ 4.79 µg/mL)		COc1ccc(F)cc1N1C(=O)CSC1c1cccc(C(=O)NCCCCc2ccccc2)c1 (stereo unspecified)	8.8	76	32	46	95	86	62			
						CNC(=O)c1cc(Oc2ccc(NC(=O)Nc3ccc(Cl)c(C(F)(F)F)c3)cc2)ccn1 [SORAFENIB]								44.2	Non-Toxic	
1712	2946	2014	20 (≈ 8.97 µg/mL)	10 (≈ 4.49 µg/mL)		O=C(NCCCCc1ccccc1)c1cccc(C2SCC(=O)N2c2ccccc2F)c1 (stereo unspecified)	34.1	80	38	83	95	92	59			
128.7	1022	392	50 (≈ 21.8 µg/mL)	50 (≈ 21.8 µg/mL)	33.2	Cc1ccnc(N2C(=O)CSC2c2cccc(C(=O)NCCCCn3cccn3)c2)c1 (racemic)	19.6									38.9
						COc1ccccc1N1C(=O)CSC1c1cc(F)cc(C(=O)O)c1 (stereo unspecified)	> 1000	0	15	8	0	0	0			
						COc1cc(F)ccc1N1C(=O)CSC1c1cccc(C(=O)NCCCCc2ccccc2)c1 (stereo unspecified)	71.1	77	34	81	94	92	63			
1750	2323	2014	10 (≈ 4.95 µg/mL)	2 (≈ 0.989 µg/mL)		CC(F)(F)c1cccc(N2C(=O)CSC2c2cccc(C(=O)NCCCCc3ccccc3)c2)c1 (stereo unspecified)	29.1	68	24	23	93	92	1			
